Data as given in ChEMBL document CHEMBL5370624 (J Med Chem, 2023).
The source made the active and inactive calls. No cut-off for these calls is given here.

Key:
[1] = target: T1, Toll-like receptor 4 (Homo sapiens, UniProt O00206); assay: Agonist activity at human TLR4 in human HEK-Blue hTLR4 cells assessed as NF-kappaB activation incubated for 48 hrs by SEAP reporter gene based Quanti-blue assay; type: cell-based
[2] = target: T2, Toll-like receptor 4 (Mus musculus, UniProt Q9QUK6); assay: Agonist activity at TLR4 in mouse RAW264.7 cells assessed as induction of MIP-1beta release incubated for 24 hrs by ELISA; type: cell-based
T2 sequence (Q9QUK6 whole entry): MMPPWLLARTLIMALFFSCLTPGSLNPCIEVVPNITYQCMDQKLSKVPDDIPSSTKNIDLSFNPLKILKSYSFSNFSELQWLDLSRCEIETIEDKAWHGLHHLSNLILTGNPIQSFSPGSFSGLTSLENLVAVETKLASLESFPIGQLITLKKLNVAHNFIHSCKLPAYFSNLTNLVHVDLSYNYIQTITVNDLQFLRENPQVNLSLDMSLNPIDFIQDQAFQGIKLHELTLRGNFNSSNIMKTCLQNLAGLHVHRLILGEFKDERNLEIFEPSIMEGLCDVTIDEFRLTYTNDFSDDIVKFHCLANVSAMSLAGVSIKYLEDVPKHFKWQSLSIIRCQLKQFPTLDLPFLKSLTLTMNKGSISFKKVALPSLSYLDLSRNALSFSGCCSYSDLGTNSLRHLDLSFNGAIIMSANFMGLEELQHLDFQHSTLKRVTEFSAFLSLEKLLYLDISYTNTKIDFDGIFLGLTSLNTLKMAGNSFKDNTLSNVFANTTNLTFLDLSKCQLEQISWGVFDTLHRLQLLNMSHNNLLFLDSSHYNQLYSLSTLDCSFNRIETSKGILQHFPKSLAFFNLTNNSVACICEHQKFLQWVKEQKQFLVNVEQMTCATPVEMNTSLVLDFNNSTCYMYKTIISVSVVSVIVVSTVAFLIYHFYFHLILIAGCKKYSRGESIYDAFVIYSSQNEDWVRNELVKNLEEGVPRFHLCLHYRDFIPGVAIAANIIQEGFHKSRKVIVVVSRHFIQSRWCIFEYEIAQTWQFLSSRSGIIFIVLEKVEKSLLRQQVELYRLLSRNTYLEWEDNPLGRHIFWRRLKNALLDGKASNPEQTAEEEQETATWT

[3] = Aqueous stability of the compound assessed as drug degradation at 40 degreeC and measured after 3 months by LC-MS analysis; type: physicochemical; details: buffer, 2190 h
[4] = target: T2, Toll-like receptor 4; assay: Agonist activity at mouse TLR4 in human HEK-Blue mTLR4 cells assessed as NF-kappaB activation incubated for 48 hrs by SEAP reporter gene based Quanti-blue assay; type: cell-based
[5] = target: T1, Toll-like receptor 4; assay: Agonist activity at TLR4 in human MONO-MAC-6 cells assessed as induction of MIP-1beta release incubated for 24 hrs by ELISA; type: cell-based
[6] = target: T1, Toll-like receptor 4; assay: Agonist activity at TLR4 in human PBMC cells assessed as induction of MIP-1beta release incubated for 20 hrs by ELISA; type: cell-based
[7] = target: T1, Toll-like receptor 4; assay: Agonist activity at TLR4 in human PBMC cells assessed as induction of TNFalpha release incubated for 20 hrs by ELISA; type: cell-based
[8] = target: T1, Toll-like receptor 4; assay: Agonist activity at TLR4 in human PBMC cells assessed as induction of IL-1beta release incubated for 20 hrs by ELISA; type: cell-based
[9] = target: T1, Toll-like receptor 4; assay: Agonist activity at TLR4 in human PBMC cells assessed as induction of RANTES release incubated for 20 hrs by ELISA; type: cell-based
[10] = species: Mus musculus; assay: Immuno-adjuvant activity in H3N2-split A/Victoria/210/2009 influenza virus-immunized BALB/c mouse model assessed as increase in influenza specific serum IgG titer level at 0.001 to 0.1 ug,IM and measured after 14 days by ELISA; type: functional, organism-based; details: dose 0.001-0.1 µg, time 14.0 day
[11] = species: Mus musculus; assay: Immuno-adjuvant activity in H3N2-split A/Victoria/210/2009 influenza virus-immunized BALB/c mouse model assessed as increase in influenza specific serum IgG1 titer level at 0.001 to 0.1 ug,IM and measured after 14 days by ELISA; type: functional, organism-based; details: dose 0.001-0.1 µg, time 14.0 day
[12] = tested on: Mus musculus; assay: Immuno-adjuvant activity in H3N2-split A/Victoria/210/2009 influenza virus-immunized BALB/c mouse model assessed as increase in influenza specific serum IgG titer level at 0.001 to 0.1 ug,IM administered on day 0 and 14 and measured after 28 days by ELISA; type: functional, organism-based; details: dose 0.001-0.1 µg, time 28.0 day
[13] = tested on: Mus musculus; assay: Immuno-adjuvant activity in H3N2-split A/Victoria/210/2009 influenza virus-immunized BALB/c mouse model assessed as increase in influenza specific serum IgG1 titer level at 0.001 to 0.1 ug,IM administered on day 0 and 14 and measured after 28 days by ELISA; type: functional, organism-based; details: dose 0.001-0.1 µg, time 28.0 day
[14] = tested on: Mus musculus; assay: Immuno-adjuvant activity in H3N2-split A/Victoria/210/2009 influenza virus-immunized BALB/c mouse model assessed as increase in influenza specific serum IgG2a titer level at 0.001 to 0.1 ug,IM administered on day 0 and 14 and measured after 28 days by ELISA; type: functional, organism-based; details: dose 0.001-0.1 µg, time 28.0 day
[15] = Toxicity in H3N2-split A/Victoria/210/2009 influenza virus-immunized BALB/c mouse model assessed as abnormality at 0.001 to 0.1 ug,IM administered on day 0 and 14 and measured after 28 days; details: in vivo, 672 h, dose 0.001-0.1 µg, time 28 day
[16] = Toxicity in H3N2-split A/Victoria/210/2009 influenza virus-immunized BALB/c mouse model assessed as reactogenicity at 0.001 to 0.1 ug,IM administered on day 0 and 14 and measured after 28 days; details: in vivo, 672 h, dose 0.001-0.1 µg, time 28 day
[17] = tested on: Mus musculus; assay: Immuno-adjuvant activity in H3N2-A/HK/68 influenza virus-immunized BALB/c mouse model assessed as increase in survival rate at 10 ug,INH administered 48hrs prior to influenza challenge and measured after 18 days; type: functional; details: dose 10 µg, time 18 day
[18] = tested on: Mus musculus; assay: Immuno-adjuvant activity in H3N2-A/HK/68 influenza virus-immunized BALB/c mouse model assessed as increase in survival rate at 1 ug,INH administered 48hrs prior to influenza challenge and measured after 18 days; type: functional; details: dose 1 µg, time 18 day
[19] = Toxicity in H3N2-A/HK/68 influenza virus-immunized BALB/c mouse model assessed as body weight change at 1 to 10 ug,INH administered 48hrs prior to influenza challenge and measured after 18 days; details: in vivo, inhaled_or_intranasal, 432 h, dose 1-10 µg, time 18 day
[20] = Toxicity in H3N2-A/HK/68 influenza virus-immunized BALB/c mouse model assessed as disease index at 1 to 10 ug,INH administered 48hrs prior to influenza challenge and measured after 18 days; details: in vivo, inhaled_or_intranasal, 432 h, dose 1-10 µg, time 18 day
[21] = Toxicity in H3N2-A/HK/68 influenza virus-immunized BALB/c mouse model assessed as change in body temperature at 1 to 10 ug,INH administered 48hrs prior to influenza challenge and measured after 18 days; details: in vivo, inhaled_or_intranasal, 432 h, dose 1-10 µg, time 18 day

T1 sequence (O00206 whole entry): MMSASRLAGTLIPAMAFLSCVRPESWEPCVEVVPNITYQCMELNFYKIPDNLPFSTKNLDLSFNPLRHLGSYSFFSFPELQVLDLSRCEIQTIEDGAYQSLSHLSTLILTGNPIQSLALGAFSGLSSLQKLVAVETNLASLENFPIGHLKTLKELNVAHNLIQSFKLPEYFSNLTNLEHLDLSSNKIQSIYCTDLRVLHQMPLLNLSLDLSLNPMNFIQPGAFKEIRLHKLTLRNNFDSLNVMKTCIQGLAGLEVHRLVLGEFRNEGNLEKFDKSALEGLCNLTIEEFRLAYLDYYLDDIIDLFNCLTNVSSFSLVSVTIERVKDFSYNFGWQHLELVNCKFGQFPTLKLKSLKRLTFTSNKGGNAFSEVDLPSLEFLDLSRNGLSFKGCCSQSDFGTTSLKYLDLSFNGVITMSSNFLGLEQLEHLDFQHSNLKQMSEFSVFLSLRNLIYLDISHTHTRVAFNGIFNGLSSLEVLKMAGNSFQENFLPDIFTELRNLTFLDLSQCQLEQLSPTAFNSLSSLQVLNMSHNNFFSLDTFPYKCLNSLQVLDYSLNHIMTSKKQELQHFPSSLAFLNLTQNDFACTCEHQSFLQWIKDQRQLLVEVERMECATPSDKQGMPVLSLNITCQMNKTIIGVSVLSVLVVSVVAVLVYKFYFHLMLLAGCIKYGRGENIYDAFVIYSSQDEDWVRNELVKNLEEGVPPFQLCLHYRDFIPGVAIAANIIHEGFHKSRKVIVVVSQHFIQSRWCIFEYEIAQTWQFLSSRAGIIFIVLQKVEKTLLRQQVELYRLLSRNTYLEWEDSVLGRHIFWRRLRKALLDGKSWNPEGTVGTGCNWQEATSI

CCCCCCCCCCC[C@H](CC(=O)N[C@H]1[C@H](OC[C@H](NC(=O)C[C@@H](CCCCCCCCCCC)OCCCCCCCCCC)C(=O)O)O[C@H](CO)[C@@H](OP(=O)(O)O)[C@@H]1OC(=O)C[C@@H](CCCCCCCCCCC)OCCCCCCCCCC)OCCCCCCCCCC
EC50 [1]: 0.93 nM | EC50 [2]: 0.015 nM | Stability [3]: Stable | EC50 [4]: 0.005 nM | EC50 [5]: 0.06 nM | EC50 [6]: 0.01 nM | EC50 [7]: 0.26 nM | EC50 [8]: 0.028 nM | EC50 [9]: 0.014 nM | Activity [10]: Dose-Dependent Effect | Activity [11]: Dose-Dependent Effect | Activity [12]: Active | Activity [13]: Active | Activity [14]: Active | Activity [15]: Non-Toxic | Activity [16]: Non-Toxic | Survival [17]: 100% | Survival [18]: 60% | Activity [19]: Non-Toxic | Activity [20]: Non-Toxic | Activity [21]: Non-Toxic
